Here are results for 41 compounds from patent US20060252807A1, “Novel ortho-terphenyl inhibitors of p38 kinase and methods of treating inflammatory disorders” (Kalypsys, Inc., priority 2005, published 2006).

Bounds are passed on as bounds.

The target of the experiment is T1, active p38 alpha enzyme (Upstate Biotechnology) (Homo sapiens, UniProt Q16539).
T1 construct: purchased Upstate Biotechnology
The experiment can be described thus: p38α biochemical assay (ATP turnover, luminescent detection, Cambrex PKlight). The settings on record: p38α kinase; Table 1 Biological Activity. The method in brief: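 In this kinase reaction, p38α used MapkapK2 as phosphorylation substrate at low ATP (1.4 uM final) over 2 hours at 30C, and activity was followed as ATP turnover by luminescence.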

T1 sequence (Q16539 whole entry): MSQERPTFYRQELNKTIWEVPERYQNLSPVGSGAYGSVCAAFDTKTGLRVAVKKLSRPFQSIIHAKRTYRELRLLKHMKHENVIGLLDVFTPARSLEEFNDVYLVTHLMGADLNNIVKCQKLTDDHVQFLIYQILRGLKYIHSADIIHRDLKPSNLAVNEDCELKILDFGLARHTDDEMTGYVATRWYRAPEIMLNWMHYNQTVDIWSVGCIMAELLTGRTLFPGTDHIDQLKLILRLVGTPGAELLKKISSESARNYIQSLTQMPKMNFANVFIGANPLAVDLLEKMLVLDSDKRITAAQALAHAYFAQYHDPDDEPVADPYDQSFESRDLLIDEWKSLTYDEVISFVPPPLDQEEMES

For `CC(C)NC(=O)c1csc(-c2c(-c3ccc(F)cc3)n[nH]c2C2CCN(C(=O)C3CCCN3C(=O)OC(C)(C)C)CC2)n1` (centres unmarked) [Example 1009], the IC50 (as a rule, the concentration that gives 50% inhibition) was above 1000 nM.

For `CC(C)NC(=O)c1csc(-c2c(-c3ccc(F)cc3)n[nH]c2C2CCN(C(=O)/C=C/c3ccccc3C(F)(F)F)CC2)n1` [Example 1010], the IC50 was above 1000 nM.

`CCOc1ccc2ccccc2c1C(=O)N1CCC(c2[nH]nc(-c3ccc(F)cc3)c2-c2nc(C(=O)NC(C)C)cs2)CC1` [Example 1011] returned an IC50 above 1000 nM.

Turning to `CC(C)NC(=O)c1csc(-c2c(-c3ccc(F)cc3)n[nH]c2C2CCN(C(=O)C(NC(=O)OC(C)(C)C)C(C)C)CC2)n1` (centres unmarked) [Example 1012], the IC50 is above 1000 nM.

Take `CC(C)NC(=O)c1csc(-c2c(-c3ccc(F)cc3)n[nH]c2C2CCN(C(=O)C(NC(=O)OC(C)(C)C)C(C)C)CC2)n1` (centres unmarked) [Example 1013]: the IC50 is above 1000 nM.

Compound `CC(C)NC(=O)c1csc(-c2c(-c3ccc(F)cc3)n[nH]c2C2CCN(C(=O)CCc3cccc(C(F)(F)F)c3)CC2)n1` [Example 1014] yielded an IC50 above 1000 nM.

With `CC1=NN(c2ccc(C(=O)N3CCC(c4[nH]nc(-c5ccc(F)cc5)c4-c4nc(C(=O)NC(C)C)cs4)CC3)cc2)C(=O)C1` [Example 1015], the IC50 was above 1000 nM.

Turning to `Cc1nc(Br)sc1C(=O)N1CCC(c2[nH]nc(-c3ccc(F)cc3)c2-c2nc(C(=O)NC(C)C)cs2)CC1` [Example 1016], the IC50 is above 1000 nM.

As to `CC(C)NC(=O)c1csc(-c2c(-c3ccc(F)cc3)n[nH]c2C2CCN(C(=O)c3c4ccccc4cc4ccccc34)CC2)n1` [Example 1017], the IC50 was above 1000 nM.

The compound `CC(C)NC(=O)c1csc(-c2c(-c3ccc(F)cc3)n[nH]c2C2CCN(C(=O)c3cc(C(C)C)cc(C(C)C)c3O)CC2)n1` [Example 1018] gave an IC50 above 1000 nM.

In the case of `CC(=O)NC(Cc1ccc(O)cc1)C(=O)N1CCC(c2[nH]nc(-c3ccc(F)cc3)c2-c2nc(C(=O)NC(C)C)cs2)CC1` (centres unmarked) [Example 1019], the IC50 was above 1000 nM.

`CC(C)NC(=O)c1csc(-c2c(-c3ccc(F)cc3)n[nH]c2C2CCN(C(=O)c3c(Cl)cc(Cl)cc3Cl)CC2)n1` [Example 1020] registered an IC50 above 1000 nM.

`COc1cc(C(=O)N2CCC(c3[nH]nc(-c4ccc(F)cc4)c3-c3nc(C(=O)NC(C)C)cs3)CC2)c([N+](=O)[O-])cc1OC` [Example 1021]: the IC50 was above 1000 nM.

In turn, `CC(C)NC(=O)c1csc(-c2c(-c3ccc(F)cc3)n[nH]c2C2CCN(C(=O)c3ccc(OCc4ccccc4)cc3)CC2)n1` [Example 1022] gave an IC50 above 1000 nM.

Take `CC(C)NC(=O)c1csc(-c2c(-c3ccc(F)cc3)n[nH]c2C2CCN(C(=O)CCc3ccccc3Br)CC2)n1` [Example 1023]: the IC50 was above 1000 nM.

As for `CC(C)NC(=O)c1csc(-c2c(-c3ccc(F)cc3)n[nH]c2C2CCN(C(=O)CCc3cccc(Br)c3)CC2)n1` [Example 1024], the IC50 was above 1000 nM.

Regarding `CC(C)NC(=O)c1csc(-c2c(-c3ccc(F)cc3)n[nH]c2C2CCN(C(=O)C3CCCCN3C(=O)OC(C)(C)C)CC2)n1` (centres unmarked) [Example 1025], the IC50 was above 1000 nM.

As for `CC(C)NC(=O)c1csc(-c2c(-c3ccc(F)cc3)n[nH]c2C2CCN(C(=O)c3ccc(Oc4cccc(O)c4)cc3)CC2)n1` [Example 1026], the IC50 was above 1000 nM.

`COc1ccc2cc(C(C)C(=O)N3CCC(c4[nH]nc(-c5ccc(F)cc5)c4-c4nc(C(=O)NC(C)C)cs4)CC3)ccc2c1` (centres unmarked) [Example 1027] registered an IC50 above 1000 nM.

The compound `CC(C)NC(=O)c1csc(-c2c(-c3ccc(F)cc3)n[nH]c2C2CCN(C(=O)C3CN(C(=O)OC(C)(C)C)CCN3)CC2)n1` (centres unmarked) [Example 1028] registered an IC50 above 1000 nM.

`CC(C)NC(=O)c1csc(-c2c(-c3ccc(F)cc3)n[nH]c2C2CCN(C(=O)C3CN(C(=O)OC(C)(C)C)CCN3)CC2)n1` (centres unmarked) [Example 1029] had an IC50 of at most 1000 nM.

Compound `COc1ccc(Br)c(C(=O)N2CCC(c3[nH]nc(-c4ccc(F)cc4)c3-c3nc(C(=O)NC(C)C)cs3)CC2)c1` [Example 1030] gave an IC50 above 1000 nM.

`CC(C)NC(=O)c1csc(-c2c(-c3ccc(F)cc3)n[nH]c2C2CCN(C(=O)C3CC(O)CN3C(=O)OC(C)(C)C)CC2)n1` (centres unmarked) [Example 1031] had an IC50 of at most 1000 nM.

For the compound `CC(C)NC(=O)c1csc(-c2c(-c3ccc(F)cc3)n[nH]c2C2CCN(C(=O)C(C(C)C)N(C)C(=O)OC(C)(C)C)CC2)n1` (centres unmarked) [Example 1032], the IC50 was at most 1000 nM.

In turn, `CC(C)NC(=O)c1csc(-c2c(-c3ccc(F)cc3)n[nH]c2C2CCN(C(=O)c3ccc(C(F)(F)F)cc3[N+](=O)[O-])CC2)n1` [Example 1033] registered an IC50 above 1000 nM.

`CC(C)NC(=O)c1csc(-c2c(-c3ccc(F)cc3)n[nH]c2C2CCN(C(=O)c3cc(Br)ccc3Cl)CC2)n1` [Example 1034] returned an IC50 above 1000 nM.

Take `CC(C)NC(=O)c1csc(-c2c(-c3ccc(F)cc3)n[nH]c2C2CCN(C(=O)c3ccc(Cl)c(Br)c3)CC2)n1` [Example 1035]: the IC50 is above 1000 nM.

On to `CC(C)NC(=O)c1csc(-c2c(-c3ccc(F)cc3)n[nH]c2C2CCN(C(=O)c3ccccc3C(=O)c3ccc(O)cc3)CC2)n1` [Example 1036], for which the IC50 was above 1000 nM.

Compound `CC(C)NC(=O)c1csc(-c2c(-c3ccc(F)cc3)n[nH]c2C2CCN(C(=O)c3ccccc3C(=O)c3ccc(F)cc3)CC2)n1` [Example 1037] showed an IC50 above 1000 nM.

Regarding `CC(C)NC(=O)c1csc(-c2c(-c3ccc(F)cc3)n[nH]c2C2CCN(C(=O)C(C)c3ccc(-c4ccccc4)c(F)c3)CC2)n1` (centres unmarked) [Example 1038], the IC50 is above 1000 nM.

The compound `CC(C)NC(=O)c1csc(-c2c(-c3ccc(F)cc3)n[nH]c2C2CCN(C(=O)C3CCCN3C(=O)OCc3ccccc3)CC2)n1` (centres unmarked) [Example 1041] had an IC50 above 1000 nM.

With `CCC(C)C(NC(=O)OC(C)(C)C)C(=O)N1CCC(c2[nH]nc(-c3ccc(F)cc3)c2-c2nc(C(=O)NC(C)C)cs2)CC1` (centres unmarked) [Example 1042], the IC50 was above 1000 nM.

In turn, `CC(C)CC(NC(=O)OC(C)(C)C)C(=O)N1CCC(c2[nH]nc(-c3ccc(F)cc3)c2-c2nc(C(=O)NC(C)C)cs2)CC1` (centres unmarked) [Example 1043] returned an IC50 of at most 1000 nM.

For the compound `CC(C)NC(=O)c1csc(-c2c(-c3ccc(F)cc3)n[nH]c2C2CCN(C(=O)C(C)c3cccc(C(=O)c4ccccc4)c3)CC2)n1` (centres unmarked) [Example 1044], the IC50 is above 1000 nM.

`CC(C)NC(=O)c1csc(-c2c(-c3ccc(F)cc3)n[nH]c2C2CCN(C(=O)C(Cc3ccccc3)NC(=O)OC(C)(C)C)CC2)n1` (centres unmarked) [Example 1045]: the IC50 was above 1000 nM.

With `CC(C)NC(=O)c1csc(-c2c(-c3ccc(F)cc3)n[nH]c2C2CCN(C(=O)C(Cc3ccccn3)NC(=O)OC(C)(C)C)CC2)n1` (centres unmarked) [Example 1046], the IC50 was above 1000 nM.

In turn, `CC(C)NC(=O)c1csc(-c2c(-c3ccc(F)cc3)n[nH]c2C2CCN(C(=O)C3Cc4ccccc4CN3C(=O)OC(C)(C)C)CC2)n1` (centres unmarked) [Example 1047] showed an IC50 above 1000 nM.

Compound `CC(C)NC(=O)c1csc(-c2c(-c3ccc(F)cc3)n[nH]c2C2CCN(C(=O)C(Cc3ccc(O)cc3)NC(=O)OC(C)(C)C)CC2)n1` (centres unmarked) [Example 1048] registered a 50% inhibitory concentration (IC50) above 1000 nM.

As for `CNCc1nc(-c2ccc(F)cc2)c(-c2nc(C(=O)NC(C)C)cs2)o1` [Example 1049], the IC50 was above 1000 nM.

In turn, `CCNCc1nc(-c2ccc(F)cc2)c(-c2nc(C(=O)NC(C)C)cs2)o1` [Example 1050] showed an IC50 above 1000 nM.

Compound `C#CCNCc1nc(-c2ccc(F)cc2)c(-c2nc(C(=O)NC(C)C)cs2)o1` [Example 1051] registered an IC50 above 1000 nM.
